Series [1] has as its system A375 melanoma cells (B-Raf V600E). The series can be described thus: A375 cell growth inhibition (ATPlite). Format: cell-based. As to conditions: Homo sapiens, A-375, 72 h; A375, 3 days incubation. The method, boiled down:
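Cells plated overnight, then exposed 3 days at 37° C to 8-point 1:3 compound dilutions topping at 10 μM final. Viability read as ATPlite luminescence, proportional to cell number; IC50 from luminescence versus concentration.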

For series [2], the target named is CYP2D6 (Homo sapiens, UniProt P10635). Nature of the series: CYP2D6 inhibition (fluorescent substrate). As to conditions: CYP2D6, AMMC substrate; read-out: Cyp IC50 2D6. Format: in vitro ADME. Put shortly:
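IC50 values come from plotting product fluorescence against compound concentration; inhibition lowers formation of the fluorescent metabolite. Ten-point twofold dilutions in co-factor mix were held 10 minutes at 37 °C before the enzyme reaction, also run at 37 °C.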

pIC50: −log10 of the molar value.

Sequence of CYP2D6 (P10635 whole entry): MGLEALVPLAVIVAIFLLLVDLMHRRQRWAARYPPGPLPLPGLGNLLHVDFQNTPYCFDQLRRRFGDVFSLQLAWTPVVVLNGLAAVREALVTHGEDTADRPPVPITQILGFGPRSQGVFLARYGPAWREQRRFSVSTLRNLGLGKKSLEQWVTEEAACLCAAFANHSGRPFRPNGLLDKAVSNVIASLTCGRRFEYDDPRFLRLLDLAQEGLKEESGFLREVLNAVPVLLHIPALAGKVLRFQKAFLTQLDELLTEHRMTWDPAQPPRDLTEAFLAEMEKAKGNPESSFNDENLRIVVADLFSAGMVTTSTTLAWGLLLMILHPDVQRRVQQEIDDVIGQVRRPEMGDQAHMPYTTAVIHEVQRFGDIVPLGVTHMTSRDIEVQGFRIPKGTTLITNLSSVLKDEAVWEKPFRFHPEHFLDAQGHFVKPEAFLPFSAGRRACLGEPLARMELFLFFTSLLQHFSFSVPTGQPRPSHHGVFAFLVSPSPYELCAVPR

For the molecule `CCCS(=O)(=O)Nc1ccc(F)c(C(=O)c2c[nH]c3ncc(-c4ccc(N(C)C)nc4)cc23)c1F` [P-2229, Propane-1-sulfonic acid {3-[5-(6-dimethylamino-pyridin-3-yl)-1H-pyrrolo[2,3-b]pyridine-3-carbonyl]-2,4-difluoro-phenyl}-amide], the pIC50 in series [1] was over 7.00; in series [2], under 5.00.

The record behind these values is patent publication US8198273B2, “Compounds and methods for kinase modulation, and indications therefor” (Plexxikon Inc., priority 2009, dated 2012).
